Laboratory results taken from US20050148069A1, “IGF-1 instructs multipotent adult CNS neural stem cells to an oligodendroglial lineage” (priority 2003, published 2005).

Assays:
[1] = tested on: adult hippocampus-derived neural progenitor cells; assay: in vitro differentiation analysis of neural progenitor cells (immunocytochemistry for lineage markers); type: cell-based, rat
Method: The neural progenitor cells isolated from the hippocampus of female Fischer 344 used in this study have been characterized previously (Gage et al., 1995; Palmer et al., 1997). The whole brain-derived neural stem cells from PIO ICR mice were isolated and cultured according to the methods as described, with slight modifications. Cells were cultured as previously described (Gage et al., 1995; Ray et al., 1993). Cells between passages 10 and 20 were used for in vitro differentiation analyses. To induce differentiation, cells were plated into 4-well chamber slides at a density of 55,000-75,000 cells per well and were allowed to proliferate in N2-supplemented (Invitrogen) DMEM:F12 (Omega Scientific) medium containing 20 ng/ml FGF-2 (PeproTech, Inc.) for 24 hours. FGF-2 was then withdrawn and cells were subsequently treated with differentiation media. […] For IGF-induction experiments, cells were trypsinized, washed with 1× PBS, and plated into insulin-free N2 medium. […] In some cultures, BrdU (2.5 μM, Sigma) was added to label dividing cells, and Q-VD-OPh (2 μM, Enzyme Systems Products) was added to prevent apoptosis.
Cells were fixed with 4% paraformaldehyde, followed by immunocytochemical staining as described (Palmer et al., 1999). Labeled cells were visualized using a Nikon E800 upright microscope or a Nikon E600 inverted microscope (Nikon Inc.) and a Spot RT CCD camera (Diagnostic Instruments Inc.). 4′,6-diamidino-2-phenylindole (DAPI) was used to identify individual cells. Quantification of cell phenotypes was with StereoInvestigator (MicroBrightfield Inc.); for each marker, 500-1000 cells were sampled systematically from standardized fields at 40×magnification. For quantification of live/dead cells, images were taken of cultures live-stained with propidum iodide (1 μg/ml; Molecular Probes) and Hoescht 33342 (1 μg/ml; Sigma) at 10×magnification, and cells were counted using Image-Pro (Media Cybernetics). The following primary antibodies were used: rabbit anti-Tuj1 (1:7500;Covance), mouse anti-RIP (1:25-1:75; Hybridoma Bank); guinea pig anti-GFAP (1:500-1:2500; Advanced Immunochemical, Inc.); rabbit anti-MBP (1:500; Chemicon International Inc.), rat anti-BrdU (1:400; Accurate). Secondary antibodies were all from Jackson ImmunoResearch and used at 1:250 dilution. The detection of BrdU in cultured cells required treatment in 2 N HCL at 37° C. for 30 min (Palmer et al., 1999). All experiments were independently replicated at least 3 times.

[2] = tested on: adult hippocampus-derived neural progenitor cells; assay: mathematical model of proliferation and differentiation rates; parameters: species or system rat; conditions: 500 ng/ml IGF-I
Text: Therefore, to separate the IGF-I effects on proliferation of progenitors from the instructive differentiation of progenitors to oligodendrocytes, we developed a mathematical model (as shown in FIG. 4A). This modeling approach has previously been used to quantify the effects of hippocampal astrocytes on the proliferation and neuronal differentiation of adult neural progenitor cells (Song et al., 2002). To distinguish the proliferation and differentiation rates, the model required that we count the number of RIP+ cells that were either positive or negative for BrdU at each time point. […] Because of this finding, we decided to separate the proliferation rate of RIP− (defined as α) and RIP+ cells (γ), as well as the differentiation rate (β) of RIP− to RIP+ cells. The overall death rate measured by Hoechst dye in live cultures could not be experimentally separated into a RIP− death rate (δ) and a RIP+ death rate (ε) (Song et al., 2002). Therefore, the model was bounded by the two possibilities that all cell death is from only RIP− or only RIP+ cells. We also considered the more probable assumption that the death rates for both RIP− and RIP+ cells were equal.
Six equations were used to derive values for these rates. The first equation describes the differential gain in RIP− cells: dN^RIP−/dt=(α−δ)N^RIP−−βN^RIP− (b 1) where N^RIP−is the number of RIP− cells, α is the proliferation rate of RIP− cells (per 12-h interval), β is the differentiation rate of RIP− into RIP+ cells, and δ is the death rate of RIP− cells. Similarly for RIP+ cells, dN^RIP+/dt=(γ−ε)N^RIP++βN^RIP− (2) where N^RIP+ is the number of RIP+ cells, […] is a proliferation rate of RIP+ cells, and ε is the RIP+ death rate. The sum of (1) and (2) is the equation defining total cell count: dN^Total/dt=(α−δ)N^RIP−+(γ−ε)N^RIP+ (3)
The time-course experiments were performed in 12-h intervals, allowing for measurement of the proliferation and differentiation rates at each 12-h time interval—αi is the proliferation rate of RIP− cells at time ‘i’ and so forth. […]

IGF-I: human recombinant IGF-I (R&D Systems), growth factor polypeptide
RIP+ cells ([1]; 500 ng/ml IGF-1 added to Q-VD-OPh-treated 2-day cultures): large increase in RIP+ cells | total cells positive for myelin basic protein (MBP) ([1]; 500 ng/ml IGF-I, 4-day time point): Approximately 23% | overall number of RIP+ cells over time ([1]; 500 ng/ml IGF-I, 12 h to 48 h): progressive increase in the overall number of RIP+ cells over time | percentage of RIP+ cells ([1]; 500 ng/ml, 4 days, insulin-free N2 medium): 45-55% | dose dependence of oligodendrocyte differentiation ([1]; 20-500 ng/ml, 4-day cultures): occurred in a dose-dependent manner | percentage of Tuj1-positive cells across tested concentrations ([1]; 20-500 ng/ml, 4-day cultures): did not appear to change | rank order of potency for oligodendrocyte differentiation ([1]; different concentrations (20-1000 ng/ml)): IGF-I>IGF-II>insulin | GFAP+ astrocytes ([1]; each at 500 ng/ml, 4 days): few to no GFAP+ astrocytes | oligodendrocyte-promoting effects in other rat lines ([1]; independently derived rat hippocampus progenitor cell line and clonally derived line (unpublished data)): confirmed | differentiation rate (β) of RIP− to RIP+ cells [2]: increase in differentiation rate | proliferation rate (γ) of RIP+ cells [2]: increase in the proliferation rate | proliferation rate of RIP− cells (α) [2]: no increase in the proliferation rate of RIP− cells
